From patent publication US20120108632A1, “[…] INHIBITORS FOR OCULAR HYPERTENSION CONTROL AND THE TREATMENT OF GLAUCOMA” (ALCON RESEARCH, LTD., priority 2006, published 2012)

Assays:
GGTase = GGTase (Homo sapiens, UniProt P53609); conditions: cited from earlier work
Ftase = Ftase (Homo sapiens, UniProt P49356); conditions: cited from earlier work
[1] = test system: lactate dehydrogenase (LDH) release into culture media; test: CytoTox-ONE Homogenous Membrane Integrity Assay (LDH release); format: cell-based; conditions: conclusion from LDH release; FIG. 4
[2] = test system: CTGF gene expression in cultured human trabecular meshwork cells; test: Basal and TGFβ2-induced CTGF gene expression by QRT-PCR in TM cells; format: cell-based; conditions: for measured CTGF levels (CTGF/18S cDNA) compared to TGFβ2-treated cells: TM cells treated with TGFβ2 and inhibitor, versus TGFβ2 alone, FIGS. 1 and 2
Source text: (§1) Total RNA was isolated from TM cells using Qiagen RNeasy 96 system according to the manufacturer's instructions (Qiagen).
Differential expression of CTGF and PAI-1 were verified by quantitative real-time RT-PCR (QRT-PCR) using an ABI Prism® 7700 Sequence Detection System (Applied Biosystems) essentially as previously described (Shepard et al., IOVS, 2001, Vol. 42:3173). Primers for CTGF amplification were designed using Primer Express software (Applied Biosystems) to anneal to adjacent exons of Genbank accession #NM_001901.1 ([…] (SEQ ID NO: 1), nts 1667-1689 and […] (SEQ ID NO: 2), nts 1723-1742, with probe sequence 6FAM-[…]-TAMRA (SEQ ID NO: 3)) and generate a 76-bp amplicon. Primers for PAI-1 amplification were purchased from ABI (Hs00167155 ml) and correspond to Genbank accession #NM_000602.1. Amplification of CTGF or PAI-1 was normalized to 18S ribosomal RNA expression using primers designed to the 18S rRNA gene (GenBank accession #X03205 […] (SEQ ID NO: 4), nts 1680-1700 and […] (SEQ ID NO: 5), nts 1730-1749, with probe sequence 6FAM-[…]-MGBNFQ (SEQ ID NO: 6)) which generates a 69-bp amplicon. CTGF or PAI-1 QRT-PCR was performed in multiplex with 18S primer/probe sets in a 50 ul final volume consisting of 40 nM 18S or 900 nM CTGF or PAI-1 primers; 100 nM 18S probe or 100 nM CTGF or 250 nM PAI-1 probe; 5 ul RNA; 1× Multiscribe and RNase Inhibitor Mix (ABI); and 1× TaqMan® Universal Mix (ABI). Thermal cycling conditions consisted of 48° C., 30 min, 95° C. 10 min followed by 40 cycles at 95° C., 15 sec, 60° C., 1 min. […] Quantification of relative RNA concentrations was done using the delta delta Ct method as described in PE Biosystems User Bulletin #2. Levels of amplified products were expressed as mean±SEM of quadruplicate QRT-PCR assays. […]
(§2) In this example, the effectiveness of GGTase and FTase inhibitors on CTGF gene expression in cultured human trabecular meshwork cells was studied. In this experiment, the CTGF/18S cDNA levels were measured and compared by QRT-PCR according to the protocol of Example 1.

[3] = test system: PAI-1 gene expression in TM cell lines; test: TGFβ2-induced PAI-1 gene expression by QRT-PCR in TM cells; format: cell-based, human; conditions: TM cell lines treated with TGFβ2 and inhibitor, versus TGFβ2 alone; FIG. 3
Source text: as §1
Differential expression of CTGF and PAI-1 were verified by quantitative real-time RT-PCR (QRT-PCR) using an ABI Prism® 7700 Sequence Detection System (Applied Biosystems) essentially as previously described (Shepard et al., IOVS, 2001, Vol. 42:3173). Primers for CTGF amplification were designed using Primer Express software (Applied Biosystems) to anneal to adjacent exons of Genbank accession #NM_001901.1 ([…] (SEQ ID NO: 1), nts 1667-1689 and […] (SEQ ID NO: 2), nts 1723-1742, with probe sequence 6FAM-[…]-TAMRA (SEQ ID NO: 3)) and generate a 76-bp amplicon. Primers for PAI-1 amplification were purchased from ABI (Hs00167155 ml) and correspond to Genbank accession #NM_000602.1. […] Quantification of relative RNA concentrations was done using the delta delta Ct method as described in PE Biosystems User Bulletin #2. Levels of amplified products were expressed as mean±SEM of quadruplicate QRT-PCR assays. […]
as §2

| Structure (SMILES) | IC50 (GGTase) [µM] | IC50 (Ftase) [µM] | cytotoxicity [1] | measured CTGF levels (CTGF/18S cDNA) compared to TGFβ2-treated cells [2] | measured PAI-1 compared to TGFβ2-treated cells [3] | measured CTGF levels (CTGF/18S cDNA) compared to vehicle alone ([2]; TM cell cultures treated with TGFβ2 and inhibitor, versus vehicle alone, FIG. 1) |
| --- | --- | --- | --- | --- | --- | --- |
| CSCC[C@H](NC(=O)c1ccc(NC[C@@H](N)CS)cc1-c1ccccc1)C(=O)O [FTI-276] | 0.05 |  |  |  |  |  |
| COC(=O)[C@H](CCSC)NC(=O)c1ccc(NC[C@@H](N)CS)cc1-c1ccccc1 [FTI-277] |  | 0.1 | relatively low cytotoxicity | produces a drop in measured CTGF levels | able to produce drops in measured PAI-1 |  |
| CSCC[C@H](NC(=O)c1ccc(NC(=O)[C@@H](N)CS)cc1)C(=O)O [Ftase Inhibitor II] |  | 0.05 |  |  |  |  |
| CSCC[C@H](NC(=O)[C@H](Cc1ccccc1)NC[C@@H](NC[C@@H](N)CS)C(C)C)C(=O)O [Ftase Inhibitor I] | 0.79 | 0.021 |  |  |  |  |
| COC(=O)[C@H](CC(C)C)NC(=O)c1ccc(NC[C@@H](N)CS)cc1-c1ccccc1 [GGTI-286] | 2 |  |  |  |  |  |
| CC(C)C[C@H](NC(=O)c1ccc(NC[C@@H](N)CS)cc1-c1cccc2ccccc12)C(=O)O [GGTI-297] | 0.05 | 0.2 |  |  |  |  |
| COC(=O)[C@H](CC(C)C)NC(=O)c1ccc(NC[C@@H](N)CS)cc1-c1cccc2ccccc12 [GGTI-298] | 3 |  |  |  |  |  |
| CC(C)C[C@H](NC(=O)c1ccc(NCc2cnc[nH]2)cc1-c1cccc2ccccc12)C(=O)O [GGTI-2133] | 0.038 | 5.4 | relatively low cytotoxicity | dramatically reduced CTGF levels | able to produce drops in measured PAI-1 | lower than with vehicle alone |
| COC(=O)[C@H](CC(C)C)NC(=O)c1ccc(NCc2cnc[nH]2)cc1-c1cccc2ccccc12 [GGTI-2147] | 0.5 | 30 |  |  |  |  |
